How the values were obtained:
RAW 264.7 macrophages = details: PARP inhibition; cited from earlier work
[1] = human, in vivo; cited from earlier work
PARP = PARP (Mus musculus, UniProt P11103); assay: whole cell PARP inhibition in UV-activated RAW 264.7 macrophages, PARP activity by ELISA; format: cell-based
tuberculosis = details: systemically delivered, despite significant plasma levels; cited from earlier work
[2] = in vivo; cited from earlier work

Sequence of PARP (P11103 2-1013): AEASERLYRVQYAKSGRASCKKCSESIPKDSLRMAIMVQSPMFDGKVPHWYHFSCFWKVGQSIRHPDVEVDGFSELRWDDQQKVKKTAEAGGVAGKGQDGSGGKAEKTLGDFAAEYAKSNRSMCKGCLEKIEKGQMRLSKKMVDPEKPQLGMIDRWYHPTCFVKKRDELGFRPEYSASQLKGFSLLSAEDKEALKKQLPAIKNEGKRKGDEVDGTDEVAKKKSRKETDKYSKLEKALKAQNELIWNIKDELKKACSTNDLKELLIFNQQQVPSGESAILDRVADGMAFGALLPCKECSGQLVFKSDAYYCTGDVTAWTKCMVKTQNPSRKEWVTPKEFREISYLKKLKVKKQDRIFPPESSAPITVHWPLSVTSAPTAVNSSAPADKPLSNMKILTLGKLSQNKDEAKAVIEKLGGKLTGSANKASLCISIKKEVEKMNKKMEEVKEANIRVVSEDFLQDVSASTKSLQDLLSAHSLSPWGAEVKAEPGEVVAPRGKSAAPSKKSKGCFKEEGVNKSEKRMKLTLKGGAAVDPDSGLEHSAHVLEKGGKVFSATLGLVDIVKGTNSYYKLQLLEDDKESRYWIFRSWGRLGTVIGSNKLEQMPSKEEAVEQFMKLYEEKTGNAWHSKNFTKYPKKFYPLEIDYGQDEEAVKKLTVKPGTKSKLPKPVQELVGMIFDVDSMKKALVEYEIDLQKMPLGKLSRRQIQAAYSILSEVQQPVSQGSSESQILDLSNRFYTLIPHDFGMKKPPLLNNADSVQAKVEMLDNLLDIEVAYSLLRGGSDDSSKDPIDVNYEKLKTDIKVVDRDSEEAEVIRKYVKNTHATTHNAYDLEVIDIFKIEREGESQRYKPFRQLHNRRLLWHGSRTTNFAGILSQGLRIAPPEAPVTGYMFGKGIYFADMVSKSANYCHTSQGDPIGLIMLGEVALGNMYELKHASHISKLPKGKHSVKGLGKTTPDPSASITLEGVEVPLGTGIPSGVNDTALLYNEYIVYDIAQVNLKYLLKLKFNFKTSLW

| SMILES | inhibition of mycobacteria-induced macrophage necrosis (RAW 264.7 macrophages) | steady state peak plasma level [1] | PARP inhibition (in words) (PARP; at levels readily achieved during conventional PZA therapy) | ratio of plasma Cmax/IC50 (PARP; known peak plasma level in TB patients over whole-cell PARP IC50) | efficacy in vivo (tuberculosis) | distribution in human granulomas [2] |
| --- | --- | --- | --- | --- | --- | --- |
| NC(=O)c1cccc(N)c1 [3-aminobenzamide] | strongly inhibited | – | – | – | – | – |
| NC(=O)c1cnccn1 [PZA, pyrazinamide] | – | about 500 μM | – | – | – | – |
| O=C(O)c1cnccn1 [POA, pyrazinoic acid] | – | 300 µM | potent inhibitor | 20 | ineffective | wide distribution |

— US20200009143A1, “REPURPOSING OF CANCER DRUGS FOR TREATMENT OF MYCOBACTERIUM” (STC.UNM, priority 2016, published 2020)
